Measured values as given in PubChem BioAssay (NCI).
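Briefly, cells in 96-well plates were exposed to five compound concentrations for 48 h, and endpoints were estimated by linear interpolation. TGI: total growth inhibition.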

Experiments:
Test in all cases: NCI tumour cell line growth inhibition, 48 h
HCC-2998 colon = tested on: HCC-2998 colon
SN12K1 renal = tested on: SN12K1 renal
TK-10 renal = tested on: TK-10 renal
ACHN renal = tested on: ACHN renal
CCRF-CEM leukemia = tested on: CCRF-CEM leukemia
UO-31 renal = tested on: UO-31 renal
NCI/ADR-RES ovarian = tested on: NCI/ADR-RES ovarian
HL-60(TB) leukemia = tested on: HL-60(TB) leukemia
COLO 205 colon = tested on: COLO 205 colon
HOP-18 NSCLC = tested on: HOP-18 NSCLC
DLD-1 colon = tested on: DLD-1 colon
LOX IMVI melanoma = tested on: LOX IMVI melanoma
DMS 273 small cell lung = tested on: DMS 273 small cell lung
786-0 renal = tested on: 786-0 renal
OVCAR-3 ovarian = tested on: OVCAR-3 ovarian
P388/ADR leukemia = tested on: P388/ADR leukemia
M19-MEL melanoma = tested on: M19-MEL melanoma
SNB-19 CNS = tested on: SNB-19 CNS
MDA-N = tested on: MDA-N
CAKI-1 renal = tested on: CAKI-1 renal
A549 NSCLC = tested on: A549 NSCLC
MOLT-4 leukemia = tested on: MOLT-4 leukemia
OVCAR-5 ovarian = tested on: OVCAR-5 ovarian
NCI-H23 lung = tested on: NCI-H23 lung
OVCAR-4 ovarian = tested on: OVCAR-4 ovarian
UACC-62 melanoma = tested on: UACC-62 melanoma
MCF7 breast = tested on: MCF7 breast
SW-620 colon = tested on: SW-620 colon
SK-MEL-5 melanoma = tested on: SK-MEL-5 melanoma
EKVX NSCLC = tested on: EKVX NSCLC
U251 CNS = tested on: U251 CNS
SK-MEL-28 melanoma = tested on: SK-MEL-28 melanoma
SN12C renal = tested on: SN12C renal
SNB-78 CNS = tested on: SNB-78 CNS
XF 498 CNS = tested on: XF 498 CNS
DMS 114 small cell lung = tested on: DMS 114 small cell lung
SNB-75 CNS = tested on: SNB-75 CNS
SF-268 CNS = tested on: SF-268 CNS
MDA-MB-435 = tested on: MDA-MB-435
T-47D breast = tested on: T-47D breast
SF-539 CNS = tested on: SF-539 CNS
M14 melanoma = tested on: M14 melanoma
RXF 393 renal = tested on: RXF 393 renal
A498 renal = tested on: A498 renal
NCI-H226 lung = tested on: NCI-H226 lung
SK-OV-3 ovarian = tested on: SK-OV-3 ovarian
SR leukemia = tested on: SR leukemia
K-562 leukemia = tested on: K-562 leukemia
HCT-15 colon = tested on: HCT-15 colon
NCI-H522 lung = tested on: NCI-H522 lung
OVCAR-8 ovarian = tested on: OVCAR-8 ovarian
NCI-H460 lung = tested on: NCI-H460 lung
HOP-92 NSCLC = tested on: HOP-92 NSCLC
PC-3 prostate = tested on: PC-3 prostate
HT29 colon = tested on: HT29 colon
MALME-3M melanoma = tested on: MALME-3M melanoma
HOP-62 NSCLC = tested on: HOP-62 NSCLC
BT-549 breast = tested on: BT-549 breast
HCT-116 colon = tested on: HCT-116 colon
HS 578T breast = tested on: HS 578T breast
UACC-257 melanoma = tested on: UACC-257 melanoma
KM20L2 colon = tested on: KM20L2 colon
IGROV1 ovarian = tested on: IGROV1 ovarian
KM12 colon = tested on: KM12 colon
SF-295 CNS = tested on: SF-295 CNS
SK-MEL-2 melanoma = tested on: SK-MEL-2 melanoma
DU-145 prostate = tested on: DU-145 prostate
MDA-MB-231 breast = tested on: MDA-MB-231 breast
RPMI-8226 leukemia = tested on: RPMI-8226 leukemia
P388 leukemia = tested on: P388 leukemia
RXF-631 renal = tested on: RXF-631 renal
LXFL 529 NSCLC = tested on: LXFL 529 NSCLC

O=C(NCCCCCCNC(=O)n1cc(F)c(=O)[nH]c1=O)NCCCOCCOCCOCCOCCOCCOCCOCCOCCOCCOCCOCCOCCOCCOCCOCCOCCOCCOCCOCCOCCOCCCNC(=O)C(O)C(O)C(OC1OC(CO)C(O)C(O)C1O)C(O)CO (centres undefined)
TGI (HCC-2998 colon): > 87.2 µM
TGI (SN12K1 renal): > 100 µM
TGI (TK-10 renal): > 100 µM
TGI (ACHN renal): > 100 µM
TGI (CCRF-CEM leukemia): > 100 µM
TGI (UO-31 renal): > 100 µM
TGI (NCI/ADR-RES ovarian): > 100 µM
TGI (HL-60(TB) leukemia): > 100 µM
TGI (COLO 205 colon): > 100 µM
TGI (HOP-18 NSCLC): > 100 µM
TGI (DLD-1 colon): > 100 µM
TGI (LOX IMVI melanoma): > 100 µM
TGI (DMS 273 small cell lung): > 100 µM
TGI (786-0 renal): > 100 µM
TGI (OVCAR-3 ovarian): > 100 µM
TGI (P388/ADR leukemia): > 100 µM
TGI (M19-MEL melanoma): > 100 µM
TGI (SNB-19 CNS): > 100 µM
TGI (MDA-N): > 100 µM
TGI (CAKI-1 renal): > 100 µM
TGI (A549 NSCLC): > 100 µM
TGI (MOLT-4 leukemia): > 100 µM
TGI (OVCAR-5 ovarian): > 100 µM
TGI (NCI-H23 lung): > 100 µM
TGI (OVCAR-4 ovarian): > 100 µM
TGI (UACC-62 melanoma): > 100 µM
TGI (MCF7 breast): > 46.8 µM
TGI (SW-620 colon): > 100 µM
TGI (SK-MEL-5 melanoma): > 100 µM
TGI (EKVX NSCLC): > 100 µM
TGI (U251 CNS): > 100 µM
TGI (SK-MEL-28 melanoma): > 100 µM
TGI (SN12C renal): > 100 µM
TGI (SNB-78 CNS): > 100 µM
TGI (XF 498 CNS): > 100 µM
TGI (DMS 114 small cell lung): > 100 µM
TGI (SNB-75 CNS): > 43.7 µM
TGI (SF-268 CNS): > 100 µM
TGI (MDA-MB-435): > 100 µM
TGI (T-47D breast): > 100 µM
TGI (SF-539 CNS): 22.7 µM
TGI (M14 melanoma): > 100 µM
TGI (RXF 393 renal): > 100 µM
TGI (A498 renal): > 100 µM
TGI (NCI-H226 lung): > 100 µM
TGI (SK-OV-3 ovarian): > 100 µM
TGI (SR leukemia): > 100 µM
TGI (K-562 leukemia): > 100 µM
TGI (HCT-15 colon): > 100 µM
TGI (NCI-H522 lung): > 100 µM
TGI (OVCAR-8 ovarian): > 100 µM
TGI (NCI-H460 lung): > 100 µM
TGI (HOP-92 NSCLC): > 100 µM
TGI (PC-3 prostate): > 100 µM
TGI (HT29 colon): > 100 µM
TGI (MALME-3M melanoma): > 100 µM
TGI (HOP-62 NSCLC): > 100 µM
TGI (BT-549 breast): > 100 µM
TGI (HCT-116 colon): > 100 µM
TGI (HS 578T breast): > 100 µM
TGI (UACC-257 melanoma): > 100 µM
TGI (KM20L2 colon): > 100 µM
TGI (IGROV1 ovarian): > 100 µM
TGI (KM12 colon): > 100 µM
TGI (SF-295 CNS): > 100 µM
TGI (SK-MEL-2 melanoma): > 100 µM
TGI (DU-145 prostate): > 100 µM
TGI (MDA-MB-231 breast): > 100 µM
TGI (RPMI-8226 leukemia): > 100 µM
TGI (P388 leukemia): > 100 µM

CCC(=O)C(C)C(=O)C(=O)C(=O)OC (centres undefined)
TGI (HCC-2998 colon): > 100 µM
TGI (TK-10 renal): > 100 µM
TGI (ACHN renal): > 100 µM
TGI (CCRF-CEM leukemia): > 69.1 µM
TGI (UO-31 renal): > 100 µM
TGI (HL-60(TB) leukemia): > 64.4 µM
TGI (COLO 205 colon): > 100 µM
TGI (HOP-18 NSCLC): > 100 µM
TGI (DLD-1 colon): > 100 µM
TGI (LOX IMVI melanoma): > 100 µM
TGI (DMS 273 small cell lung): > 100 µM
TGI (786-0 renal): > 100 µM
TGI (OVCAR-3 ovarian): > 100 µM
TGI (M19-MEL melanoma): > 100 µM
TGI (SNB-19 CNS): > 100 µM
TGI (CAKI-1 renal): > 100 µM
TGI (A549 NSCLC): > 100 µM
TGI (MOLT-4 leukemia): > 91.5 µM
TGI (OVCAR-5 ovarian): > 100 µM
TGI (NCI-H23 lung): > 100 µM
TGI (OVCAR-4 ovarian): > 100 µM
TGI (RXF-631 renal): > 100 µM
TGI (UACC-62 melanoma): > 100 µM
TGI (SW-620 colon): > 45.7 µM
TGI (LXFL 529 NSCLC): > 100 µM
TGI (SK-MEL-5 melanoma): > 100 µM
TGI (EKVX NSCLC): > 100 µM
TGI (U251 CNS): > 68.2 µM
TGI (SK-MEL-28 melanoma): > 100 µM
TGI (SN12C renal): > 100 µM
TGI (SNB-78 CNS): > 100 µM
TGI (XF 498 CNS): > 100 µM
TGI (DMS 114 small cell lung): > 100 µM
TGI (SNB-75 CNS): > 100 µM
TGI (SF-268 CNS): > 100 µM
TGI (SF-539 CNS): > 100 µM
TGI (M14 melanoma): > 100 µM
TGI (RXF 393 renal): 99.3 µM
TGI (A498 renal): > 100 µM
TGI (NCI-H226 lung): > 100 µM
TGI (SK-OV-3 ovarian): > 100 µM
TGI (SR leukemia): > 100 µM
TGI (K-562 leukemia): > 100 µM
TGI (HCT-15 colon): > 100 µM
TGI (NCI-H522 lung): > 100 µM
TGI (OVCAR-8 ovarian): > 100 µM
TGI (NCI-H460 lung): > 100 µM
TGI (HOP-92 NSCLC): > 100 µM
TGI (HT29 colon): > 100 µM
TGI (MALME-3M melanoma): > 100 µM
TGI (HOP-62 NSCLC): > 100 µM
TGI (HCT-116 colon): > 100 µM
TGI (UACC-257 melanoma): > 100 µM
TGI (KM20L2 colon): > 100 µM
TGI (IGROV1 ovarian): > 100 µM
TGI (KM12 colon): > 100 µM
TGI (SF-295 CNS): > 100 µM
TGI (SK-MEL-2 melanoma): > 100 µM
TGI (RPMI-8226 leukemia): > 100 µM
